How the values were obtained:
Assay in all cases: In vitro competitive activity-based protein profiling (Table 2, % inhibition at 1 μM)
Assay type in all cases: biochemical
ABHD6 = molecular target: T1, ABHD6 (Mus musculus, UniProt Q8R2Y0); details: read-out: % Inhibition at 1 μM ABHD6
T1 sequence (Q8R2Y0 1-336): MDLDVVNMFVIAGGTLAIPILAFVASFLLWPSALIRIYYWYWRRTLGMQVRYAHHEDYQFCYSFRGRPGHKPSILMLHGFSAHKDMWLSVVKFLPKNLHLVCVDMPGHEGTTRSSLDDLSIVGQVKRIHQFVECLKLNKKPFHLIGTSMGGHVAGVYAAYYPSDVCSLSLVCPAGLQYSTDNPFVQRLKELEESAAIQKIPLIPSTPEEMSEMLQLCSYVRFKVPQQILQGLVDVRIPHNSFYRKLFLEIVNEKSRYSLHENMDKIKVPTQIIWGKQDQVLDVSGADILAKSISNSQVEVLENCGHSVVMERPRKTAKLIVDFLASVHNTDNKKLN
Protocol: (§1) After 30 min, FP—Rh (1.0 μL, 50 μM in DMSO) was added and the mixture was incubated for another 30 min at 37° C. Reactions were quenched with SDS loading buffer (50 μL-4×) and run on SDS-PAGE. Following gel imaging, serine hydrolase activity was determined by measuring fluorescent intensity of gel bands corresponding to MAGL, ABHD6 and FAAH using ImageJ 1.43 u software.
(§2) hMAGL was expressed in HEK293T cells according to previously reported methods (see Niphakis, Long, and Blankman, J. L., et al. (2007) Chem. Biol. 14:1347-1356). Cell lysates were diluted with mock proteomes for use in competitive ABPP experiments.

FAAH = molecular target: T2, FAAH (Mus musculus, UniProt O08914); details: read-out: % Inhibition at 1 μM FAAH
T2 sequence (O08914 1-579): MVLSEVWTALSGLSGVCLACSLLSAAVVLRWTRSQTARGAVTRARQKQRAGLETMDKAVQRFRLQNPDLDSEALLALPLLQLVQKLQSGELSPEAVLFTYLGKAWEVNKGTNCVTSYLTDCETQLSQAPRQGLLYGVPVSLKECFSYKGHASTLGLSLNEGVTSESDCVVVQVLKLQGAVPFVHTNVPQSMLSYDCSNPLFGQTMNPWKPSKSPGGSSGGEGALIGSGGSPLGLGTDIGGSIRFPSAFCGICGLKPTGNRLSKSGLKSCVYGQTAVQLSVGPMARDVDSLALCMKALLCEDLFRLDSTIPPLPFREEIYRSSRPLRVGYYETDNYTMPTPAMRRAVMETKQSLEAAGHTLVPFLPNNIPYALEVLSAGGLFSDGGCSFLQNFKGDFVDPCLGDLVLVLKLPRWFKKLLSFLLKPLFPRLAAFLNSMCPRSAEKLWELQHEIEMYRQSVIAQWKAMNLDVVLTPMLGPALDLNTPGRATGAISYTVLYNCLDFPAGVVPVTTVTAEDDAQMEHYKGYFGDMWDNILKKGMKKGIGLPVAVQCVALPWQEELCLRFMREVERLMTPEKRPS
Protocol: as §1, §2

MAGL = molecular target: T3, MAGL (Mus musculus, UniProt O35678); details: read-out: % Inhibition at 1 μM MAGL
T3 sequence (O35678 1-303): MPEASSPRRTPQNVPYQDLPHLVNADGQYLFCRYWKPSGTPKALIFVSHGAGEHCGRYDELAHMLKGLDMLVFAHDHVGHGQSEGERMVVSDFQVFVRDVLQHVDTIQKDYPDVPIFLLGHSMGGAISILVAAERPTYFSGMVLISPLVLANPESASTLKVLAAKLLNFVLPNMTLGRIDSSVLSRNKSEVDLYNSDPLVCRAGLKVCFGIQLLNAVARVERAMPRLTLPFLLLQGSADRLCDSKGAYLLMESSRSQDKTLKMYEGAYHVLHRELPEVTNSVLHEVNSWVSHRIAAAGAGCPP
Protocol: After 30 min, FP—Rh (1.0 μL, 50 μM in DMSO) was added and the mixture was incubated for another 30 min at 37° C. Reactions were quenched with SDS loading buffer (50 μL-4×) and run on SDS-PAGE.
Cell lysates were diluted with mock proteomes for use in competitive ABPP experiments.

SMILES | inhibition at 1 µM (ABHD6) | inhibition at 1 µM (FAAH) | inhibition at 1 µM (MAGL)
CC(=O)N1CCN(c2ccc(CN3CC4CN(C(=O)ON5C(=O)CCC5=O)CC4C3)c(F)c2)CC1 (centres unmarked) [Example 101, 2,5-Dioxopyrrolidin-1-yl 5-[[4-(4-acetylpiperazin-1-yl)-2-fluorophenyl]methyl]-octahydropyrrolo[3,4-c]pyrrole-2-carboxylate] | < 25% | < 25% | < 25%
CC(=O)N1CCN(c2cc(Cl)ccc2CN2CC3CN(C(=O)ON4C(=O)CCC4=O)CC3C2)CC1 (centres unmarked) [Example 96, 2,5-Dioxopyrrolidin-1-yl 5-[[2-(4-acetylpiperazin-1-yl)-4-chlorophenyl]methyl]-octahydropyrrolo[3,4-c]pyrrole-2-carboxylate] | < 25% | < 25% | < 25%
CC(=O)NC1CCN(c2cccc(CN3CC4CN(C(=O)ON5C(=O)CCC5=O)CC4C3)c2C)CC1 (centres unmarked) [Example 142, 2,5-dioxopyrrolidin-1-yl 5-[[3-(4-acetamidopiperidin-1-yl)-2-methylphenyl]methyl]-octahydropyrrolo[3,4-c]pyrrole-2-carboxylate] | < 25% | < 25% | < 25%
O=C(ON1C(=O)CCC1=O)N1CC2CN(Cc3ccc(C(=O)N4CCCCC4)cc3Cl)CC2C1 (centres unmarked) [Example 161, 2,5-dioxopyrrolidin-1-yl 5-([2-chloro-4-[(piperidin-1-yl)carbonyl]phenyl]methyl)-octahydropyrrolo[3,4-c]pyrrole-2-carboxylate] | 25 to 75% | 25 to 75% | 25 to 75%
CC(=O)N1CCN(c2cc(F)ccc2CN2CC3CN(C(=O)ON4C(=O)CCC4=O)CC3C2)CC1 (centres unmarked) [Example 92, 2,5-Dioxopyrrolidin-1-yl 5-[[2-(4-acetylpiperazin-1-yl)-4-fluorophenyl]methyl]-octahydropyrrolo[3,4-c]pyrrole-2-carboxylate] | < 25% | < 25% | < 25%
O=C(ON1C(=O)CCC1=O)N1CC2CN(Cc3ccc(C(=O)N4CCCC4)cc3F)CC2C1 (centres unmarked) [Example 167, 2,5-dioxopyrrolidin-1-yl5-(2-fluoro-4-(pyrrolidine-1-carbonyl)benzyl)-hexahydropyrrolo[3,4-c]pyrrole-2(1H)-carboxylate] | < 25% | – | –
O=C(ON1C(=O)CCC1=O)N1CC2CN(Cc3ccc(Cl)cc3N3CCn4ncnc4C3)CC2C1 (centres unmarked) [Example 108, 2,5-Dioxopyrrolidin-1-yl 5-(4-chloro-2-(5,6-dihydro-[1,2,4]triazolo[1,5-a]pyrazin-7(8H)-yl)benzyl)-hexahydropyrrolo[3,4-c]pyrrole-2(1H)-carboxylate] | < 25% | < 25% | < 25%
Cc1cccc(CN2CC3CN(C(=O)ON4C(=O)CCC4=O)CC3C2)c1N1CCN(C)CC1 (centres unmarked) [Example 138, 2,5-dioxopyrrolidin-1-yl 5-[[3-methyl-2-(4-methylpiperazin-1-yl)phenyl]methyl]-octahydropyrrolo[3,4-c]pyrrole-2-carboxylate] | < 25% | < 25% | < 25%
O=C(ON1C(=O)CCC1=O)N1CC2CN(Cc3ccc(C(=O)N4CCC4)cc3Cl)CC2C1 (centres unmarked) [Example 165, 2,5-dioxopyrrolidin-1-yl5-(4-(azetidine-1-carbonyl)-2-chlorobenzyl)-hexahydropyrrolo[3,4-c]pyrrole-2(1H)-carboxylate] | < 25% | < 25% | 25 to 75%
Cc1c(CN2CC3CN(C(=O)ON4C(=O)CCC4=O)CC3C2)cccc1N1CCC(NS(C)(=O)=O)CC1 (centres unmarked) [Example 140, 2,5-dioxopyrrolidin-1-yl 5-[[3-(4-methanesulfonamidopiperidin-1-yl)-2-methylphenyl]methyl]-octahydropyrrolo[3,4-c]pyrrole-2-carboxylate] | < 25% | < 25% | 25 to 75%
O=C(ON1C(=O)CCC1=O)N1CC2CN(Cc3ccc(Cl)cc3N3CCC4(CCNC4=O)CC3)CC2C1 (centres unmarked) [Example 112, 2,5-Dioxopyrrolidin-1-yl 5-[(4-chloro-2-[1-oxo-2,8-diazaspiro[4.5]decan-8-yl]phenyl)methyl]-octahydropyrrolo[3,4-c]pyrrole-2-carboxylate] | < 25% | < 25% | 25 to 75%
Cc1cccc(-c2cc(CN3CC4CN(C(=O)ON5C(=O)CCC5=O)CC4C3)n(C)n2)c1 (centres unmarked) [Example 199, 2,5-dioxopyrrolidin-1-yl 5-((1-methyl-3-(m-tolyl)-1H-pyrazol-5-yl)methyl)hexahydropyrrolo[3,4-c]pyrrole-2(1H)-carboxylate] | < 25% | < 25% | 25 to 75%
CC(=O)N1CCN(c2ccc(CN3CC4CN(C(=O)ON5C(=O)CCC5=O)CC4C3)c(Cl)c2)CC1 (centres unmarked) [Example 103, 2,5-Dioxopyrrolidin-1-yl 5-[[4-(4-acetylpiperazin-1-yl)-2-chlorophenyl]methyl]-octahydropyrrolo[3,4-c]pyrrole-2-carboxylate] | < 25% | < 25% | < 25%
CC(C)c1ccc(CN2CC3CN(C(=O)ON4C(=O)CCC4=O)CC3C2)c(N2CCOCC2)c1 (centres unmarked) [Example 97, 2,5-Dioxopyrrolidin-1-yl 5-[[2-(morpholin-4-yl)-4-(propan-2-yl)phenyl]methyl]-octahydropyrrolo[3,4-c]pyrrole-2-carboxylate] | < 25% | < 25% | < 25%
O=C(ON1C(=O)CCC1=O)N1CC2CN(Cc3ccc(Cl)cc3N3CCC3)CC2C1 (centres unmarked) [Example 113, 2,5-Dioxopyrrolidin-1-yl 5-[[2-(azetidin-1-yl)-4-chlorophenyl]methyl]-octahydropyrrolo[3,4-c]pyrrole-2-carboxylate] | 25 to 75% | < 25% | > 75%
CC(=O)N1CCN(c2cccc(CN3CC4CN(C(=O)ON5C(=O)CCC5=O)CC4C3)c2C)CC1 (centres unmarked) [Example 143, 2,5-dioxopyrrolidin-1-yl 5-[[3-(4-acetylpiperazin-1-yl)-2-methylphenyl]methyl]-octahydropyrrolo[3,4-c]pyrrole-2-carboxylate] | < 25% | < 25% | < 25%
CC(=O)N1CCC(c2nn(C)cc2CN2CC3CN(C(=O)ON4C(=O)CCC4=O)CC3C2)CC1 (centres unmarked) [Example 116, 2,5-Dioxopyrrolidin-1-yl 5-[[3-(1-acetylpiperidin-4-yl)-1-methyl-1H-pyrazol-4-yl]methyl]-octahydropyrrolo[3,4-c]pyrrole-2-carboxylate] | < 25% | < 25% | < 25%
CCn1cc(CN2CC3CN(C(=O)OC(C(F)(F)F)C(F)(F)F)CC3C2)c(C(=O)N2CCOCC2)n1 (centres unmarked) [Example 76, 1,1,1,3,3,3-Hexafluoropropan-2-yl 5-((1-ethyl-3-(morpholine-4-carbonyl)-1H-pyrazol-4-yl)methyl)hexahydropyrrolo[3,4-c]pyrrole-2(1H)-carboxylate] | < 25% | < 25% | 25 to 75%
O=C(ON1C(=O)CCC1=O)N1CC2CN(Cc3ccc(C(=O)N4CCC4)cc3F)CC2C1 (centres unmarked) [Example 168, 2,5-dioxopyrrolidin-1-yl5-(4-(azetidine-1-carbonyl)-2-fluorobenzyl)-hexahydropyrrolo[3,4-c]pyrrole-2(1H)-carboxylate] | < 25% | – | –

Source: patent US9828379B2 (priority 2013, dated 2017)
